Assay results from patent US8883826B2, “Alkynyl derivatives as modulators of metabotropic glutamate receptors” (Addex Pharma SA, priority 2004, dated 2014).
“Also recorded” adds a separate entry of the source.

Legend:
[1] = target: T1, mGluR5 (Rattus norvegicus, UniProt P31424); assay: mGluR5 binding assay ([3H]-MPEP radioligand competition); details: competition with 3 nM [3H]-MPEP, rat brain cortical membranes, 1 h at 4 °C; mean of at least three independent experiments in duplicate
T1 construct: tissue Charles River Laboratories; host or cells: rat brain cortex membranes (Sprague-Dawley)
How it was run: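 Rat cortical membranes (50 μg) were incubated 1 h at 4 °C with 3 nM [3H]-MPEP and compound (0.003 nM-30 μM, 8 points) in HEPES buffer pH 7.4 with Mg2+, Ca2+ and NaCl. 30 μM MPEP defined non-specific binding, and bound label was counted after filtration. IC50 came from non-linear regression, as the mean of ≥3 experiments run in duplicate.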

[2] = test system: Male Sprague-Dawley rats; assay: Vogel conflict drinking model of anxiety; type: in vivo, rat; details: n=9-10/group
Description: Vogel Conflict Drinking Model of Anxiety in Rats
The Vogel conflict drinking model involves the conflict between thirst and receiving mild shocks for drinking water (punished drinking). Water-deprived rats are placed in a chamber and are periodically shocked for drinking water. The shocks suppress drinking and anxiolytics reverse this shock-induced suppression of drinking. The Vogel conflict drinking model was first proposed as a screening model for anxiolytics (Vogel, J. R. et al., Psychopharmacologia (Berl.), 21:1-7 (1971)) and is widely accepted as a robust model for testing the anxiolytic-like properties of compounds (Millan, M. J. and Brocco M., European Journal of Pharmacology, 463:67-96 (2003)).
Such compounds may be useful in the treatment of anxiety and related disorders. […]
The effect of compounds on drinking in the Vogel conflict drinking model in rats was tested. […] The number of punished drinks was counted automatically by the computer interface. […]
Statistical analyses were performed using GraphPad PRISM version 4.01 statistical software (GraphPad, San Diego, Calif., USA). Data were analyzed using one-way analysis of variance (ANOVA) followed by Bonferroni multiple comparisons. […]

[3] = test system: Male C57BL6/j mice; assay: Marble burying model of anxiety; type: in vivo, mouse; details: 60 minutes prior to test, n=10/group
Description: Marble Burying Model of Anxiety
Marble burying behavior in mice is reduced by compounds which are efficacious anxiolytics in humans. Thus, marble burying in mice has been used as a model for the prediction of anxiolytic-like effects of compounds (Millan, M. J. et al., Neuropharmacology, 42:677-684 (2002)).
Selective negative allosteric modulators (allosteric antagonists) of the metabotropic glutamate receptor subtype 5 (mGluR5) have been shown previously to reduce marble burying in mice (Spooren, W. P. et al., Journal of Pharmacology and Experimental Therapeutics, 295:1267-1275 (2000)). […] Such compounds may be useful in the treatment of anxiety and related disorders.
The present studies were performed in accordance with the animal care and use policies of Addex Pharmaceuticals and the EEC directives on the protection of animals used for experimental and other scientific purposes (86/609/EEC and subsequent revisions). […]
The effect of compounds on marble burying in mice was tested. […] After removal of the mice from the test cages, the number of marbles buried was counted. […]
Statistical analyses were performed using GraphPad PRISM version 4.01 statistical software (GraphPad, San Diego, Calif., USA). Data were analyzed using one-way analysis of variance (ANOVA) followed by Bonferroni-corrected multiple comparisons, or t tests if only 2 groups were present. […]

T1 sequence (P31424 21-1203): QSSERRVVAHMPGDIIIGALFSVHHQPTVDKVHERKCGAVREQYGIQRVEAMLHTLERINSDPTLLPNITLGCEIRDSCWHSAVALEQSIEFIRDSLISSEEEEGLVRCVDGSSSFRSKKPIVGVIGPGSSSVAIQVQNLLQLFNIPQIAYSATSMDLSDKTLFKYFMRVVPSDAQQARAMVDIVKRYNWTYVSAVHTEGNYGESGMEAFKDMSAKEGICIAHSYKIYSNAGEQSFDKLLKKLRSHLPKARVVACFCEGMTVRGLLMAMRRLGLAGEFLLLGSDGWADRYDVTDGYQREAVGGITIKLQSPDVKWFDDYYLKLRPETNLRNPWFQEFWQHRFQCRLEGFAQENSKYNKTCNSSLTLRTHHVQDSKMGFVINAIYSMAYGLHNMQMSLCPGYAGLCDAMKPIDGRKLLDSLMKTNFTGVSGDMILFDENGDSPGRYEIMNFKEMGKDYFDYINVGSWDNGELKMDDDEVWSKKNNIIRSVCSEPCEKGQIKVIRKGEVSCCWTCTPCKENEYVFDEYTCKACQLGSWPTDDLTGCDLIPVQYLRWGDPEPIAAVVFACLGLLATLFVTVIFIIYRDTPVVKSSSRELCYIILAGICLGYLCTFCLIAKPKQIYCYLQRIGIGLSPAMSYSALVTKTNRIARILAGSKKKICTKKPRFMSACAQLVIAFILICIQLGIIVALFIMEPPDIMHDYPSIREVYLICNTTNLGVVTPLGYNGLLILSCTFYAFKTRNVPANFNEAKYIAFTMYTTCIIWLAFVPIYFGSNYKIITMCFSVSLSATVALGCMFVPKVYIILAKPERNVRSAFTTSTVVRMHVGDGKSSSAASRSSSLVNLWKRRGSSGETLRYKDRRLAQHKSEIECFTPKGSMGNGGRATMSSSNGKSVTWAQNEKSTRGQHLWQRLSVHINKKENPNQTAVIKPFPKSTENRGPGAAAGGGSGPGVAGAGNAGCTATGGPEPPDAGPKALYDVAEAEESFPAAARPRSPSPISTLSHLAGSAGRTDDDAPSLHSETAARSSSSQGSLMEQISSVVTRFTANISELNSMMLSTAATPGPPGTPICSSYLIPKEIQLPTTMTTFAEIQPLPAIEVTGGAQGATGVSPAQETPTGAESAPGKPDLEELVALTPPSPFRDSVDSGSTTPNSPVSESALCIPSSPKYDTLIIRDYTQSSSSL

IC50 [1] [nM]	melting point [°C]	Structure (SMILES)	punished drinking in the Vogel conflict drinking test (vs vehicle) ([2]; 30 mg/kg po, t(1, 17)=2.593, hydrochloride)	marble burying in mice (number of marbles buried vs vehicle) ([3]; 50 mg/kg po, t (1, 18)=3.92)	punished drinking in the Vogel conflict drinking test (vs vehicle) ([2]; 10 mg/kg po, t=3.585, p<0.01)	marble burying in mice (number of marbles buried vs vehicle) ([3]; 30 mg/kg po, t=3.686, p<0.01)
< 50	172.5 to 173.5	Cl.FCc1cccc(C#CCCn2nc3ccccc3n2)n1 [Example 130, 2-(4-(6-(Fluoromethyl)pyridin-2-yl)but-3-ynyl)-2H-benzo[d][1,2,3]triazole hydrochloride]	significantly increases punished drinking; also recorded: took significantly more punished licks than vehicle injected controls			
< 50	106 to 107	Clc1cccn2cc(CCC#Cc3ccccn3)nc12 [Example 255, 8-Chloro-2-(4-(pyridin-2-yl)but-3-ynyl)-imidazo[1,2-a]pyridine]		significantly attenuates marble burying; also recorded: buried significantly fewer marbles than vehicle-treated mice		
< 50	73 to 74.5	FCc1cccc(C#CCCc2cn3cccc(Cl)c3n2)n1 [Example 256, 8-Chloro-2-(4-(6-(fluoromethyl)pyridin-2-yl)but-3-ynyl)-imidazo[1,2-a]pyridine]			significantly increases punished drinking; also recorded: accepted significantly more shocks than vehicle-treated rats	significantly attenuates marble burying; also recorded: buried fewer marbles than vehicle-treated mice
